Four compounds from ChEMBL document CHEMBL1151662, “Insect Antifeedant Activity of Four Prieurianin-Type Limonoids” (1985) can be followed below.

What all share (type): functional
Test [1] concerns Heliothis virescens. The test is described as follows: Insecticidal activity against tobacco budworm third instar larvae at 19.8 ug/cm2 applied on upper surface of circular leaf disk after 2 days.
The test system of test [2] is Epilachna varivestis. Kind of test: Insecticidal activity against mexican bean beetle third instar larvae at 6 ug/cm2 applied on upper surface of circular leaf disk after 2 days.
The test system of test [3] is Epilachna varivestis. The test is described as follows: Insecticidal activity against mexican bean beetle third instar larvae at 6 ug/cm2 applied on upper surface of circular leaf disk after 6 days.
Test [4] deals with Heliothis virescens. Kind of test: Insecticidal activity against tobacco budworm third instar larvae at 6 ug/cm2 applied on upper surface of circular leaf disk after 2 days.
Test [5] concerns Spodoptera eridania. Kind of test: Insecticidal activity against southern armyworm third instar larvae at 1.5 ug/cm2 applied on upper surface of circular leaf disk after 6 days.
Test [6] concerns Spodoptera eridania. The test is described as follows: Insecticidal activity against southern armyworm third instar larvae at 19.8 ug/cm2 applied on upper surface of circular leaf disk after 2 days.
Test [7] concerns Spodoptera eridania. Kind of test: Insecticidal activity against southern armyworm third instar larvae at 6 ug/cm2 applied on upper surface of circular leaf disk after 2 days.
In test [8] the test system is Heliothis virescens. Kind of test: Insecticidal activity against tobacco budworm third instar larvae at 1.5 ug/cm2 applied on upper surface of circular leaf disk after 2 days.
The test system of test [9] is Epilachna varivestis. The test is described as follows: Insecticidal activity against mexican bean beetle third instar larvae at 19.8 ug/cm2 applied on upper surface of circular leaf disk after 6 days.
Test [10] relates to Heliothis virescens. The test is described as follows: Insecticidal activity against tobacco budworm third instar larvae at 6 ug/cm2 applied on upper surface of circular leaf disk after 6 days.
The test system of test [11] is Spodoptera eridania. The test is described as follows: Insecticidal activity against southern armyworm third instar larvae at 6 ug/cm2 applied on upper surface of circular leaf disk after 6 days.
The subject of test [12] is Epilachna varivestis. The test is described as follows: Insecticidal activity against mexican bean beetle third instar larvae at 19.8 ug/cm2 applied on upper surface of circular leaf disk after 2 days.
Test [13] has as its system Heliothis virescens. Kind of test: Insecticidal activity against tobacco budworm third instar larvae at 1.5 ug/cm2 applied on upper surface of circular leaf disk after 6 days.
Test [14] concerns Heliothis virescens. The test is described as follows: Insecticidal activity against tobacco budworm third instar larvae at 19.8 ug/cm2 applied on upper surface of circular leaf disk after 6 days.
The subject of test [15] is Epilachna varivestis. The test is described as follows: Insecticidal activity against mexican bean beetle third instar larvae at 1.5 ug/cm2 applied on upper surface of circular leaf disk after 6 days.
Test [16] relates to Epilachna varivestis. Kind of test: Insecticidal activity against mexican bean beetle third instar larvae at 1.5 ug/cm2 applied on upper surface of circular leaf disk after 2 days.
The subject of test [17] is Spodoptera eridania. Kind of test: Insecticidal activity against southern armyworm third instar larvae at 1.5 ug/cm2 applied on upper surface of circular leaf disk after 2 days.
For test [18], the system named is Spodoptera eridania. The test is described as follows: Insecticidal activity against southern armyworm third instar larvae at 19.8 ug/cm2 applied on upper surface of circular leaf disk after 6 day.

`C=C1[C@@H]([C@@]2(C)[C@@H](OC(C)=O)CC(=O)O[C@](C)(COC(C)=O)[C@@H]2C(=O)OC)[C@@H](OC=O)[C@H](OC(=O)[C@H](O)[C@H](C)CC)[C@@]2(C)[C@H](c3ccoc3)CC(=O)[C@]12O` [PRIEURIANIN]: the Activity with Heliothis virescens [1] was determined as 60%; with Epilachna varivestis [2], 30%; in the test with Epilachna varivestis [3], 30%; in the test on Heliothis virescens [4], 30%; in the test on Spodoptera eridania [5], 0%; in the test on Spodoptera eridania [6], 30%. Also, the Activity in the test with Spodoptera eridania [7] was determined as 0%; in the test on Heliothis virescens [8] it was 30%; in the test with Epilachna varivestis [9], 60%; in the test with Heliothis virescens [10], 60%; in the test on Spodoptera eridania [11] it was 0%; in the test with Epilachna varivestis [12], 60%. Moreover, the Activity worked out at 0% in the test on Heliothis virescens [13]; 60% in the test with Heliothis virescens [14]; 0% in the test on Epilachna varivestis [15]; 0% in the test with Epilachna varivestis [16]; 0% with Spodoptera eridania [17]; 0% in the test with Spodoptera eridania [18].
As to `C=C1[C@@H]([C@@]2(C)C=CC(=O)O[C@]3(C)COC(=O)C[C@H]23)[C@@H](OC=O)[C@H](OC(=O)C(O)C(C)CC)[C@@]2(C)[C@@H](c3ccoc3)C[C@H](OC(C)=O)[C@]12O` (some centres not stated) [ROHITIUKA 7], the Activity is reported as 60% in the test on Heliothis virescens [1]; 0% in the test on Epilachna varivestis [2]; 0% in the test on Epilachna varivestis [3]; 0% in the test on Heliothis virescens [4]; 0% with Spodoptera eridania [5]; 0% in the test on Spodoptera eridania [6]. Moreover, the Activity in the test on Spodoptera eridania [7], in the test on Heliothis virescens [8], in the test on Epilachna varivestis [9], in the test with Heliothis virescens [10], in the test with Spodoptera eridania [11] and with Epilachna varivestis [12] was 0% in each case. Moreover, the Activity in the test on Heliothis virescens [13] was 0%; in the test on Heliothis virescens [14], 60%; in the test with Epilachna varivestis [15], 0%; in the test on Epilachna varivestis [16] it was 0%; in the test on Spodoptera eridania [17], 0%; in the test with Spodoptera eridania [18], 0%.
Take `C/C=C(\C)C(=O)O[C@H]1C[C@@H](OC(C)=O)[C@@]2(C(=O)OC)CO[C@H]3[C@@H](O)[C@@](C)([C@]45O[C@@]4(C)[C@@H]4C[C@H]5O[C@@H]5OC=C[C@@]54O)[C@H]4[C@]1(CO[C@]4(O)C(=O)OC)[C@@H]32` [AZADIRACHTIN A]: the Activity was determined as 60% in the test on Heliothis virescens [1]; 90% in the test with Epilachna varivestis [2]; 90% in the test with Epilachna varivestis [3]; 60% with Heliothis virescens [4]; 30% with Spodoptera eridania [5]; 90% in the test on Spodoptera eridania [6]. Besides, the Activity stood at 60% in the test with Spodoptera eridania [7]; 60% in the test on Heliothis virescens [8]; 90% in the test with Epilachna varivestis [9]; 60% in the test with Heliothis virescens [10]; 60% in the test on Spodoptera eridania [11]; 90% in the test on Epilachna varivestis [12]. In addition, the Activity with Heliothis virescens [13] is given as 60%; with Heliothis virescens [14], 60%; with Epilachna varivestis [15], 60%; with Epilachna varivestis [16], 30%; in the test on Spodoptera eridania [17], 60%; with Spodoptera eridania [18], 90%.
For the compound `C=C1[C@H]([C@@]2(C)[C@@H](OC(C)=O)CC(=O)O[C@]3(C)COC(=O)C[C@H]23)[C@@H](OC=O)[C@H](OC(=O)CC(C)C)[C@@]2(C)[C@@H](c3ccoc3)CC(=O)[C@@]12O` [ROHITIUKIN], the Activity in the test with Heliothis virescens [1], in the test on Epilachna varivestis [2], with Epilachna varivestis [3], with Heliothis virescens [4], in the test on Spodoptera eridania [5] and in the test on Spodoptera eridania [6] was 0% throughout. Further, the Activity with Spodoptera eridania [7], with Heliothis virescens [8], with Epilachna varivestis [9], with Heliothis virescens [10], in the test with Spodoptera eridania [11] and in the test on Epilachna varivestis [12] was 0% each time. Moreover, the Activity with Heliothis virescens [13] turned out to be 0%; with Heliothis virescens [14] it was 30%; in the test with Epilachna varivestis [15], 0%; in the test with Epilachna varivestis [16], 0%; with Spodoptera eridania [17], 0%; in the test on Spodoptera eridania [18], 0%.
